What was measured:
[1] = Determination of pKa of formulated lipids (TNS fluorescence assay in lipid nanoparticles); format: physicochemical; conditions: lipid nanoparticles (compound/DSPC/cholesterol/PEG-lipid), lipid formulated in LNP (cationic lipid/DSPC/cholesterol/PEG-lipid), pH of half-maximal fluorescence
Description: As described elsewhere, the pKa of formulated lipids is correlated with the effectiveness of LNPs for delivery of nucleic acids (see Jayaraman et al, Angewandte Chemie, International Edition (2012), 51(34), 8529-8533; Semple et al, Nature Biotechnology 28, 172-176 (2010)). In some embodiments, the preferred range of pKa is ˜5 to ˜7. The pKa of each lipid is determined in lipid nanoparticles using an assay based on fluorescence of 2-(p-toluidino)-6-napthalene sulfonic acid (TNS). Lipid nanoparticles comprising compound of structure (I)/DSPC/cholesterol/PEG-lipid (50/10/38.5/1.5 or 47.5:10:40.7:1.8 mol %) in PBS at a concentration of 0.4 mM total lipid are prepared using the in-line process as described in Example 1. TNS is prepared as a 100 μM stock solution in distilled water. Vesicles are diluted to 24 μM lipid in 2 mL of buffered solutions containing 10 mM HEPES, 10 mM MES, 10 mM ammonium acetate, and 130 mM NaCl, where the pH ranged from 2.5 to 11. An aliquot of the TNS solution is added to give a final concentration of 1 μM and following vortex mixing fluorescence intensity is measured at room temperature in a SLM Aminco Series 2 Luminescence Spectrophotometer using excitation and emission wavelengths of 321 nm and 445 nm. A sigmoidal best fit analysis is applied to the fluorescence data and the pKa is measured as the pH giving rise to half-maximal fluorescence intensity.

human IgG in mouse serum = test: Immunoglobulin G (IgG) mRNA in vivo evaluation using lipid nanoparticle compositions (human IgG ELISA); parameters: species or system mice; conditions: tail vein injection, μg IgG/mL serum 24 hours after administration; for Serum IgG @ 0.3 mg/kg: 0.3 mg mRNA/kg; for Serum IgG @ 1.0 mg/kg: 1.0 mg mRNA/kg
Description: A lipid of structure (I), DSPC, cholesterol and PEG-lipid are solubilized in ethanol at a molar ratio of 50:10:38.5:1.5 or 47.5:10:40.7:1.8. Lipid nanoparticles (LNP) are prepared at a total lipid to mRNA weight ratio of approximately 10:1 to 40:1. Briefly, the mRNA is diluted to 0.2 mg/mL in 10 to 50 mM citrate buffer, pH 4 or 10 to 25 mM acetate buffer, pH 4. Syringe pumps are used to mix the ethanolic lipid solution with the mRNA aqueous solution at a ratio of about 1:5 to 1:3 (vol/vol) with total flow rates above 15 mL/min. The ethanol is then removed, and the external buffer replaced with PBS by dialysis. Finally, the lipid nanoparticles are filtered through a 0.2 µm pore sterile filter.
Studies are performed in 6-8-week-old CD-1/ICR mice (Envigo) according to guidelines established by an institutional animal care committee (ACC) and the Canadian Council on Animal Care (CCAC). Varying doses of mRNA-lipid nanoparticle are systemically administered by tail vein injection and animals euthanized at a specific time point (e.g., 24 hours) post-administration. The whole blood is collected, and the serum subsequentially separated by centrifuging the tubes of the whole blood at 2000×g for 10 minutes at 4° C. and stored at −80° C. until use for analysis.
For immunoglobulin G (IgG) ELISA (Life Diagnostics Human IgG ELISA kit), the serum samples are diluted at 100 to 15000 folds with 1× diluent solution. 100 μL of diluted serum is dispensed into anti-human IgG coated 96-well plate in duplicate alongside human IgG standards and incubated in a plate shaker at 150 rpm at 25° C. for 45 minutes. The wells are washed 5 times with 1× wash solution using a plate washer (400 μL/well). 100 μL of HRP conjugate is added into each well and incubated in a plate shaker at the same condition above. The wells are washed 5 times again with 1× wash solution using a plate washer (400 μL/well). 100 μL of TMB reagent is added into each well and incubated in a plate shaker at the same condition above. The reaction is stopped by adding 100 μL of Stop solution to each well. The absorbance is read at 450 nm (A450) with a microplate reader. The amount of human IgG in mouse serum is determined by plotting A450 values for the assay standard against human IgG concentration.
Representative compounds of the disclosure shown in Table 2 were formulated using the following molar ratio: 50% cationic lipid/10% distearoylphosphatidylcholine (DSPC)/38.5% Cholesterol/1.5% PEG lipid 2-[2-(ω-methoxy(polyethyleneglycol2000)ethoxy]-N,N-ditetradecylacetamide) or 47.5% cationic lipid/10% DSPC/40.7% Cholesterol/1.8% PEG lipid. Activity was determined by measuring luciferase expression in the liver 4 hours following administration via tail vein injection as described in Example 1 or by measuring the amount of human IgG in mouse serum as described in Example 2. The activity was compared at a dose of 1.0 or 0.5 or 0.3 mg mRNA/kg and expressed as ng luciferase/g liver measured 4 hours after administration, as described in Example 1 or as μg IgG/mL serum measured 24 hours after administration, as described in Example 2. Compound numbers in Table 2 refer to the compound numbers of Table 1.

CCCCCCCCC(CCCCCC)C(=O)OCCCCCCN(CCCCCCOC(=O)C(CCCCCC)CCCCCCCC)CCCCN(C)CCCCC(=O)N(CCCCCC)CCCCCC (stereo not drawn) [Compound I-47, ((4-((5-(dihexylamino)-5-oxopentyl)(methyl)amino)butyl)azanediyl)bis(hexane-6,1-diyl)bis(2-hexyldecanoate)]
pKa [1]: 6.45
Serum IgG @ 0.3 mg/kg (human IgG in mouse serum): 15.3 ± 3.7 µg/mL
Serum IgG @ 1.0 mg/kg (human IgG in mouse serum): 61.8 ± 11.5 µg/mL

CCCCCCCCC(CCCCCC)COC(=O)CCCCCN(CCCCCC(=O)OCC(CCCCCC)CCCCCCCC)CCCN(C)CCCCC(=O)N(CCCCCC)CCCCCC (stereo not drawn) [Compound I-49, Bis(2-hexyldecyl) 6,6′-((3-((5-(dihexylamino)-5-oxopentyl)(methyl)amino)propyl)azanediyl)dihexanoate]
pKa [1]: 6.34
Serum IgG @ 0.3 mg/kg (human IgG in mouse serum): 42.4 ± 11.7 µg/mL
Serum IgG @ 1.0 mg/kg (human IgG in mouse serum): 120.6 ± 31.7 µg/mL

CCCCCCCCCCN(CCCCCCCCCC)C(=O)CCCCN(C)CCCCN(CCCCCCOC(=O)C(CCCCCC)CCCCCCCC)CCCCCCOC(=O)C(CCCCCC)CCCCCCCC (stereo not drawn) [Compound I-48, ((4-((5-(didecylamino)-5-oxopentyl)(methyl)amino)butyl)azanediyl)bis(hexane-6,1-diyl)bis(2-hexyldecanoate)]
pKa [1]: 6.37
Serum IgG @ 0.3 mg/kg (human IgG in mouse serum): 4.4 ± 1.1 µg/mL
Serum IgG @ 1.0 mg/kg (human IgG in mouse serum): 21.8 ± 5.0 µg/mL
